What was measured:
HL-60 cells [1] = test: Mitochondrial transmembrane potential (rhodamine 123), flow cytometry; assay type: cell-based, human; conditions: 72 h
Method: In this sense, in order to evaluate if compounds 3c and 4a induce apoptosis by alterating the mitochondria transmembrane potential, this assay was performed by flow cytometry using the fluorochrome rhodamine 123, because this is able to accumulate in cells with unchanged mitochondrial transmembrane potential.
(§1) HL-60 cells (3 × 10^5) were plated in 24-well plates and treated with the compounds 3c (13 and 26 μM) and 4a (11 and 22 μM) for 72 h at 37 °C with 5% CO2. In all trials, doxorubicin was used as a positive control. After the incubation period, an aliquot of 500 μL of treated and untreated cells suspension was transferred to an Eppendorf tube and centrifuged to remove the supernatant and continue the protocol of the test. In the cell viability and annexin V assays, kits were used, ViaCount kit and guava nexin kit (Guava Technologies), respectively. The protocols performed in these tests followed the manufacturer’s instructions. For to analyze mitochondrial depolarization, rhodamine 123 fluorescent dye was used. In the assay for cell cycle analysis and DNA fragmentation propidium iodide was used. The experiments were performed on Guava EasyCyte HT (Merck-Millipore) flow cytometer, acquiring 5000 events. The data were analyzed in Guava-Soft™ software version 2.7. Three independent experiments were performed in triplicate.

HL-60 cells [2] = test: Cell cycle assay (propidium iodide), flow cytometry; assay type: cell-based, human; conditions: 72 h
Method: In order to improve the study of the mechanism of death induction by compounds 3c and 4a in HL-60 cells, a test was performed on the flow cytometer after staining with propidium iodide to evaluate the effect of the compounds on cell cycle progression (Figure 6).
as §1

HL-60 cells [3] = test: DNA fragmentation assay (sub-G1, propidium iodide); assay type: cell-based, human; conditions: 72 h
Excerpt: DNA fragmentation is initiated after chromatin condensation and depends on several variables, such as the time required for the depolarization of the mitochondria and activation of the caspase cascade. In response to DNA damage the p53 protein is activated causing cell cycle arrest in G1 [57]. At flow cytometry the apoptotic cells with fragmented DNA can be identified as the sub-G1 population, seen to the left of the G1 peak. Thus, using the fluorochrome propidium iodide and the same principle of the cell cycle test, an assay was performed to identify HL-60 cells with fragmented DNA (Figure 7).
as §1

HL-60 cells [4] = test: Annexin V-FITC/7-AAD test, flow cytometry; assay type: cell-based, human; conditions: for cells in initial apoptosis [Annexin V(+) and 7-AAD(−)] / cells in late apoptosis [Annexin V(+) and 7-AAD(+)] / dead cells [Annexin V(−) and 7-AAD (+)]: 72 h
Method: Aiming to better study the mechanism of induction of death involved in HL-60 cells after treatment with compounds 3c and 4a, a flow cytometric test was performed after double staining with annexin V-FITC/7-AAD. This assay is based on the ability of annexin V to bind with high affinity to phosphatidylserine which is translocated to the outer membrane of apoptotic cells and the 7-AAD dye binds to the DNA of cells with loss of membrane integrity. Thus, in this test it is possible to identify four distinct populations: viable cells [Annexin V(−) and 7-AAD(−)], initial apoptotic cells [Annexin V(+) and 7-AAD(−)], late apoptotic cells [Annexin V(+) and 7-AAD(+)] and dead cells [Annexin V(−) and 7-AAD (+)] [59].
as §1

HL-60 cells [5] = test: Cell viability, Guava ViaCount kit, flow cytometry; assay type: cell-based, human; conditions: 22 μM, 72 h
Method: Initially, the percentage of viable cells in apoptosis or necrosis was determined by the ViaCount assay at the Guava EasyCyte HT flow cytometer (Merck-Millipore, Hayward, CA, USA). The ViaCount kit (Merck-Millipore, Hayward, CA, USA) determines cell viability based on membrane permeability. The concentrations used in the cytometric tests were values corresponding to the IC50 and 2x IC50 of 72 h and the chosen cell line was HL-60 (promyelocytic leukemia).
as §1, with “The experiments were performed on Guava EasyCyte HT (Merck-Millipore) flow cytometer, acquiring 5000 events.” left out, “Three independent experiments were performed in triplicate.” left out

## NC(=O)N/N=C/c1c(O)ccc2ccccc12 [Compound 3c, 2-Hydroxynaphthaldehyde Semicarbazone]
HL-60 cells [1]; 13 μM
  depolarized cells: 30.9%
HL-60 cells [1]; 26 μM
  depolarized cells: 34.2%
HL-60 cells [2]; 13 μM
  cells in G1 phase: 63.3%
HL-60 cells [2]; 26 μM
  cells in G1 phase: 66.2%
HL-60 cells [3]; 13 μM
  cells with DNA fragmentation: 3.2%
HL-60 cells [3]; 26 μM
  cells with DNA fragmentation: 7.5%
HL-60 cells [4]; 13 μM
  cells in initial apoptosis [Annexin V(+) and 7-AAD(−)]: 16.7%
  cells in late apoptosis [Annexin V(+) and 7-AAD(+)]: 7.4%
HL-60 cells [4]; 26 μM
  cells in initial apoptosis [Annexin V(+) and 7-AAD(−)]: 27.2%
  cells in late apoptosis [Annexin V(+) and 7-AAD(+)]: 18.1%
HL-60 cells [4]; highest concentration tested (26 μM)
  cells in apoptosis (annexin V assay): approximately 50%

## Cc1ccc(C=NNC(N)=O)cc1 [Compound 3g, 4-Methylbenzaldehyde Semicarbazone]
other
  melting point: 215 to 217 °C

## CCCCN(N=Cc1ccc([N+](=O)[O-])o1)C(N)=O [Compound 4a, 5-Nitro-2-(N^2-n-butyl)furfuraldehyde Semicarbazone]
HL-60 cells [5]
  cells in early apoptosis (ViaCount): 65.3%
HL-60 cells [1]; 22 μM
  depolarized cells: 59.3%
HL-60 cells [2]; 11 μM
  cells in G1 phase: 62.7%
HL-60 cells [2]; 22 μM
  cells in G1 phase: 81.9%
HL-60 cells [3]; 11 μM
  cells with DNA fragmentation: 7.0%
HL-60 cells [3]; 22 μM
  cells with DNA fragmentation: 40.3%
HL-60 cells [4]; 11 μM
  cells in initial apoptosis [Annexin V(+) and 7-AAD(−)]: 5.4%
  cells in late apoptosis [Annexin V(+) and 7-AAD(+)]: 8.3%
  dead cells [Annexin V(−) and 7-AAD (+)]: 9.1%
HL-60 cells [4]; 22 μM
  cells in initial apoptosis [Annexin V(+) and 7-AAD(−)]: 4.7%
  cells in late apoptosis [Annexin V(+) and 7-AAD(+)]: 12.5%
  dead cells [Annexin V(−) and 7-AAD (+)]: ~50%
